# From patent US8148117B2, “Microorganism and process for the preparation of L-methionine” (Evonik Degussa GmbH, priority 2005, dated 2012)
# Like-named read-outs stand apart in the source and are kept apart here.
# T1: MetB (Corynebacterium glutamicum, UniProt Q79VD9)
# T1 sequence (Q79VD9 1-386): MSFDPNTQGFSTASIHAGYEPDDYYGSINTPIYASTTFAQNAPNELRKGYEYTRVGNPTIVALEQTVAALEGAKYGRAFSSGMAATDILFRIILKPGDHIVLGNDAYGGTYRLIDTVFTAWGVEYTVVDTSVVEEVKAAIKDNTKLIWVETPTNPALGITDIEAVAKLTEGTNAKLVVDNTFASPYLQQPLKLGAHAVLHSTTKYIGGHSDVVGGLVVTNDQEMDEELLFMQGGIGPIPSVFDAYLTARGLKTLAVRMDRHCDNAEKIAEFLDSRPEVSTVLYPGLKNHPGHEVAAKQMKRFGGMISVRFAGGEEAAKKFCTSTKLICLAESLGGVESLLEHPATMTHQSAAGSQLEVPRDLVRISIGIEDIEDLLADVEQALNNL
# T2: MetC (Corynebacterium glutamicum, UniProt Q93QC6)
# T2 construct: His-Tag (N); made in house; host or cells: Escherichia coli
# T2 sequence (Q93QC6 1-368): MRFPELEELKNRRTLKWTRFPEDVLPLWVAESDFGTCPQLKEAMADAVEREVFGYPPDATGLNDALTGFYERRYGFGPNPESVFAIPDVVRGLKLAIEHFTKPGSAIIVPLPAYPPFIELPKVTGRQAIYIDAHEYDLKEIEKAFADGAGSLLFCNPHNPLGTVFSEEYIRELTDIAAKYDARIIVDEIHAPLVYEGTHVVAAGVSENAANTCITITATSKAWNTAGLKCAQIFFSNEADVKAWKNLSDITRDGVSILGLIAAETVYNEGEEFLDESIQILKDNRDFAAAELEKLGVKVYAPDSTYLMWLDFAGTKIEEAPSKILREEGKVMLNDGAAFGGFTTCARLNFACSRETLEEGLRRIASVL
# B1: MetB (Corynebacterium glutamicum ATCC 13032) (protein)
# chain: T1 sequence (Q79VD9 1-386)
# Key:
# [1] = target: MetB (Escherichia coli, UniProt P00935); conditions: E. coli MetB; Holbrook et al. 1990; cited from earlier work
# [2] = tested on: MetB; conditions: read-out: MetB Km; Spinach MetB; Ravanel et al. 1995; cited from earlier work
# [3] = target: T1, MetB; assay: In vitro assay of MetB, Km from Lineweaver-Burk plots; assay type: biochemical; conditions: C. glutamicum MetB, with O-acetyl homoserine, this study
# Procedure: Overexpression and purification of enzymes. MetB and MetC of C. glutamicum were cloned in the vector pQE30 (Qiagen). Expression with this vector comprises the addition of a His-Tag to the N-terminus of the expressed protein. Escherichia coli was transformed with the plasmid and selected by ampicillin resistance (100 μg/mL). Transformed E. coli was cultivated (100 μg/mL ampicillin, 37° C., 230 rpm) on terrific broth (Losen et al., Biotechnol Prog 2004, 204, 1062-8) and induced at an optical density of 1 (600 nm) by addition of 1 mM isopropyl thiogalactoside (final concentration). The cells were harvested by centrifugation (4225 g, 15 min, 2° C.) after 16 h of induced growth, washed and resuspended in phosphate buffer (100 mM, 100 μM pyridoxal phosphate, 1 mg/mL DNAse 1, pH 7.4 at 4° C.) and extracted by sonication (5×15 sec, 20 micron). The crude extracts were separated from cell debris by centrifugation (30 min, 2° C., and 20000 g). […] After the protein was applied to the column, it was washed with 10 vol. of 0.02 M sodium phosphate buffer. Elution was carried out with a linear gradient with 0.02 M sodium phosphate buffer (pH 7.4) containing 0.5 M NaCl and 0.5 M imidazol. […]
# In vitro assays of MetB and MetC. […] Enzyme activities were measured by increase or decrease of free SH-groups using Ellman's reagent (Extinction at 412 nm) (Ellman and Lysko, 1979). […]
# [4] = target: T2, MetC; assay type: biochemical; conditions: for Cleavage by MetC: MetC added to MetB assay products after MetB removal, HPLC and photometric SH-group assay
# Procedure: Overexpression and purification of enzymes. MetB and MetC of C. glutamicum were cloned in the vector pQE30 (Qiagen). Expression with this vector comprises the addition of a His-Tag to the N-terminus of the expressed protein. Escherichia coli was transformed with the plasmid and selected by ampicillin resistance (100 μg/mL). Transformed E. coli was cultivated (100 μg/mL ampicillin, 37° C., 230 rpm) on terrific broth (Losen et al., Biotechnol Prog 2004, 204, 1062-8) and induced at an optical density of 1 (600 nm) by addition of 1 mM isopropyl thiogalactoside (final concentration). The cells were harvested by centrifugation (4225 g, 15 min, 2° C.) after 16 h of induced growth, washed and resuspended in phosphate buffer (100 mM, 100 μM pyridoxal phosphate, 1 mg/mL DNAse 1, pH 7.4 at 4° C.) and extracted by sonication (5×15 sec, 20 micron). The crude extracts were separated from cell debris by centrifugation (30 min, 2° C., and 20000 g). […] After the protein was applied to the column, it was washed with 10 vol. of 0.02 M sodium phosphate buffer. Elution was carried out with a linear gradient with 0.02 M sodium phosphate buffer (pH 7.4) containing 0.5 M NaCl and 0.5 M imidazol. The fractions containing the protein were checked for purity with SDS-PAGE and then pooled together. Imidazole was separated from the proteins by ultrafiltration.
# In vitro assays of MetB and MetC. Activity of MetB and MetC was followed photometrically (Helios α, Thermo Electronic, Dreieich, Germany). Enzyme activities were measured by increase or decrease of free SH-groups using Ellman's reagent (Extinction at 412 nm) (Ellman and Lysko, 1979). The assay mixtures contained 1.25 mM cysteine or homocysteine and 3 mM O-acetyl homoserine for MetB-assays and 1.25 mM cystathionine or about 1.25 mM homolanthionine for MetC-assays. Homolanthionine was not commercially available. The MetC-assay was therefore carried out using the products of the MetB-assay. MetB was removed by ultrafiltration. Thus, the homolanthionine concentration could not be adjusted in the assays. […]
# [5] = target: MetC (Escherichia coli, UniProt P06721); conditions: Dwivedi et al. 1982, cited from earlier work
# [6] = target: MetC (Bordetella avium, UniProt Q07703); conditions: read-out: MetC Km; B. avium MetC; Gentry-Weeks et al. 1993; cited from earlier work
# [7] = target: MetC (Salmonella typhimurium, UniProt P18949); conditions: read-out: MetC Km; S. thyphimurium MetC; Dwivedi et al. 1982; cited from earlier work
# [8] = substrate: N[C@@H](CCS)C(=O)O; assay: purified protein, by the assay type; conditions: other: C. glutamicum MetB, with O-acetyl homoserine, this study; 37.0 °C
# Sequence of MetC (Escherichia coli, UniProt P06721) (P06721 2-395): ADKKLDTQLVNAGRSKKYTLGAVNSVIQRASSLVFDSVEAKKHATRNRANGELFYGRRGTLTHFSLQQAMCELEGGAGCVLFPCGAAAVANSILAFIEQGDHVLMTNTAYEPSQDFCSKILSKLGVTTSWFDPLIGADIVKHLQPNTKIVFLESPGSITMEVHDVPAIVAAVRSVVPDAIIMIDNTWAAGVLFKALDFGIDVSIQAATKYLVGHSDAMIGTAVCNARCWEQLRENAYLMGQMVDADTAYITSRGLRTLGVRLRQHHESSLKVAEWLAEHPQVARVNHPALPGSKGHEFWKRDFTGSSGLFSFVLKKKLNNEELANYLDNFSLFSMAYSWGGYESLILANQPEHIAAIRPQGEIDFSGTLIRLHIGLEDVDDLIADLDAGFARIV
# Sequence of MetC (Bordetella avium, UniProt Q07703) (Q07703 whole entry): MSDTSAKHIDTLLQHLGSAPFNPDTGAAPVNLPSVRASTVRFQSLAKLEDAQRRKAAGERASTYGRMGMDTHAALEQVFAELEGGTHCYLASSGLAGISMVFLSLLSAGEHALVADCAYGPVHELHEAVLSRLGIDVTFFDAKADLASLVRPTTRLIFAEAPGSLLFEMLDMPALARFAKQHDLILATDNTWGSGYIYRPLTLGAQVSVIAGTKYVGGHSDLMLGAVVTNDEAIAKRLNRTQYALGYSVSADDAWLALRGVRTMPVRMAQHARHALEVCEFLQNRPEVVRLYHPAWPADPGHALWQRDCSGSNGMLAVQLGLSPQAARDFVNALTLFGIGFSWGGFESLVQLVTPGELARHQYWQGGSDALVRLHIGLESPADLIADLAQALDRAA
# Sequence of MetC (Salmonella typhimurium, UniProt P18949) (P18949 whole entry): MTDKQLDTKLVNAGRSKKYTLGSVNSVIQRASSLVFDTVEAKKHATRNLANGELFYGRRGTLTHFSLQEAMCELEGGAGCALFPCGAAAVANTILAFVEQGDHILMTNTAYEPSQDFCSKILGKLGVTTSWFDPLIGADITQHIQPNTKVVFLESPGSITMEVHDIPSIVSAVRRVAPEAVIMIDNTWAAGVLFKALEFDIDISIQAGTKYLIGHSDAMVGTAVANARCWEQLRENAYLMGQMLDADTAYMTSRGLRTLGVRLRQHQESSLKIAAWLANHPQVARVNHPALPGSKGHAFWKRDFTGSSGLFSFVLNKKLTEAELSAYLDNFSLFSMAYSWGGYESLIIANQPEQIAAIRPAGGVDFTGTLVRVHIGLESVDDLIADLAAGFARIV
# Sequence of MetB (Escherichia coli, UniProt P00935) (P00935 whole entry): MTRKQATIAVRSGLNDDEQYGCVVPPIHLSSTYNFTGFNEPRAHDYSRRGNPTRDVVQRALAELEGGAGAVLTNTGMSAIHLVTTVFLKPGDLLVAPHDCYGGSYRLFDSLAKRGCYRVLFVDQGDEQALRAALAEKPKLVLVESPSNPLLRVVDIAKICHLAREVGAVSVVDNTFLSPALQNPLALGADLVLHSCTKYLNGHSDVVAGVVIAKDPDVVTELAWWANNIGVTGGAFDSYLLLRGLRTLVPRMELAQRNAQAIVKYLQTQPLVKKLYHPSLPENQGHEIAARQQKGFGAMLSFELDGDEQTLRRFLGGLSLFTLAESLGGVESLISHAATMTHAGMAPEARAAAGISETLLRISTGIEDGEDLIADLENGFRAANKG
molecule,measurement,setting,value
N[C@@H](CS)C(=O)O [L-cysteine],Km,[1],50 µM
same,Km,[2],180 µM
same,Km,[3],258 µM
"N[C@@H](CCSCC[C@H](N)C(=O)O)C(=O)O [L-homolanthionine, S-[(3S)-3-amino-3-carboxypropyl]-L-homocysteine]",Cleavage by MetC,[4],only poorly cleaved
same,Km,[5]; E. coli MetC,4540 µM
same,Km,[5]; E. coli cystathionase,4500 µM
N[C@@H](CCSC[C@H](N)C(=O)O)C(=O)O [L-cystathionine],Km,"[4]; C. glutamicum MetC, this study",107 µM
same,Cleavage by MetC,[4],complete cleavage
same,Km,[6],70 µM
same,Km,[5]; E. coli MetC,40 µM
same,Km,[7],220 µM
B1,Km,[8],541 µM
